Source: patent US4859688A, “Method for the treatment and prevention of arteriosclerosis with nitrophenyl substituted dihydropyridines” (priority 1984, dated 1989)

Columns and labels:
[1] = system: rabbit carotid artery; experiment: Induction of intimal thickening of rabbit carotid artery by polyethylene cuff treatment (Test 2); format: in vivo, male Japanese white rabbits; conditions: intramuscular once a day, 3 weeks, index scale 0-3
Protocol: Induction of intimal thickening of rabbit carotid artery by polyethylene cuff treatment Eight (8) male Japanese white rabbits weighing about 2 kg were used for each test group. The rabbits were anesthetized with 12.5 mg/kg petobarbital and the left carotid artery was isolated with care not to injure the surrounding tissues. A polyethylene cuff (1.5 cm long PE280, inner diameter 2.15 mm, outer diameter 3.25 mm, made by Becton Dickinson & Co.) was placed around the artery according to the technique reported by Rosnowski et al. (CR. Acad, Sci. Paris, 271 (1970) 1467). The rabbits were maintained for 3 weeks on normal diet and water. Test Compounds and vehicles were given intramuscularly once a day starting from the day of cuff-placement. At the end of the 3rd week, the rabbits were heparinized (500 U, i.v.), and the artery was removed, washed free of blood with saline, fixed by immersion in 10% formalin and divided into 8 cross segments about 2 mm long. The segments were embedded in paraffin and cut into transverse sections. These sections were stained with orcein. About 70 transverse sections were prepared from each artery and used for the quantitation of the Arteriosclerotic Index. Quantitation of Arteriosclerotic Index The arterial sections were observed by light microscopy and the Arteriosclerotic Index was scored as follows. 0: No thickening. 1: slight hyperplasia in the subendothelial space with intima-media ratio of about 1/10. 2: several layers of cells in the subendothelial space with intima-media ratio of about 1/5, or parts of the subendothelial space with more hyperplasia. 3: sever hyperplasia throughout the subendothelial space with intima-media ratio of more than 1/3.

[2] = system: rat aortic smooth muscle cells (SMC); experiment: Inhibition of migration of smooth muscle cell (SMC), modified Boyden chamber (Test 3); format: cell-based, rat (male Wistar); conditions: 5% zymosan-activated air pouch exudates as attractant, 8 hours, 37° C.
Protocol: Inhibition of migration of smooth muscle cell (SMC)
Preparation of inflammatory exudates from zymosan-activated air pouch in rats:
Inflammatory exudates were obtained according to the method of Konno and Tsurufuji [Br. J. Pharmacol., 80 (1983) 269]. Seven-week-old male Wistar rats were injected subcutaneously with 12 ml of air on the back to make a pouch. Twenty-four hours later 6 ml of 1.6% (W/V) zymosan suspension in 0.5% (W/V) methyl cellulose solution in saline was injected into the pouch to induce inflammation. After 3 days the inflammatory exudates were collected with pipets and centrifuged for 15 minutes at 2,000 G. The supernatant was stored at -80° C. until used.
Culture of rat aortic smooth muscle cells (SMC):
Rat aortic SMC were isolated and cultured by the method of Ross [J. Cell Biol. 50 (1971) 172]. […]
Migration of SMC was examined in modified Boyden chambers using a filter membrane with pores of 8 μm diameter [Atherosclerosis, 43 (1982) 143]. […] SMC migration was quantitated microscopically by counting the number of cells that migrated into the filter to a depth of 30μm. Ten high-power fields (HPF, x 400) were examined for each filter and cell migration was expressed as cells per 10 HPF.

[3] = system: thoracic aorta; experiment: Inhibition of vitamin-D3-induced rise in Ca content of the thoracic aorta (Test 4); conditions: for Ca content of the thoracic aorta (means± standard error): 10μg/kg 1-α hydroxyvitamin D3 orally once a day for 2 weeks; for ED50: Rattus norvegicus, po, 336 h, read-out: ED50, inhibition of vitamin-D3-induced rise in Ca content of the thoracic aorta
[4] = system: rabbit carotid artery; experiment: Effect on arteriosclerotic change induced by cuff in rabbit carotid artery (Test 1); format: in vivo; conditions: intramuscular, 5 days each week, 3 weeks, index scale 0-3
Source text: Effect on arteriosclerotic change induced by cuff in rabbit carotid artery
The arteriosclerosis which is characterized by intimal thickening was made in rabbits (about 2 kg weight) by the following method.
Under pentobarbital anesthesia, the left carotid artery was isolated from the surrounding tissue, put into a cuff (1.5 cm long PE-280) through a longitudinal slit and was returned to the place as it was. Then, the wound was sutured and the rabbits were recovered and fed with normal diet. Three weeks after surgery, the rabbits were anesthetized with pentobarbital and sections were taken of the carotid artery. The part of the artery covered by a cuff was examined under microscope for the arteriosclerotic index which was rated at 0, 1, 2 and 3 according to the degree of intimal thickening. For each rabbit, about 30 transverse sections were taken at random, and the mean arteriosclerotic index was used for the determination of the effect. Test Compound was suspended in 0.5% methyl cellulose and injected intramuscularly for 5 days each week beginning from one day after cuff treatment to one day before sacrifice. The injection volume was adjusted to 0.5 ml/kg.

Compound	Arteriosclerotic Index (mean±standard error) ([1]; 1 mg/kg)	Arteriosclerotic Index (mean±standard error) ([1]; 10 mg/kg)	IC50 [2]	Ca content of the thoracic aorta (means± standard error) ([3]; 1 mg/kg per os twice a day)	Ca content of the thoracic aorta (means± standard error) ([3]; 10 mg/kg per os twice a day)	Ca content of the thoracic aorta (means± standard error) ([3]; 100 mg/kg per os twice a day)	ED50 [3]	Arteriosclerotic Index ([4]; 1.0 mg/kg)	Arteriosclerotic Index ([4]; 10 mg/kg)	Ca content of the thoracic aorta (means± standard error) ([3]; 0.1 mg/kg per os twice a day)
COC(=O)C1=C(C)NC(C)=C(C(=O)OC)C1c1ccccc1[N+](=O)[O-] [Nifedipine, Dimethyl ester of 2,6-dimethyl-4-(2-nitrophenyl)-1,4-dihydropyridine-3,5-dicarboxylic acid, reference compound]	0.94 ±0.21	1.19 ±0.26	0.17 nM	93 ± 15 % of control	58 ± 15 % of control	30 ± 10 % of control	23.2 mg/kg	–	–	–
COC(=O)C1=C(C#N)NC(C)=C(C(=O)OC(C)C)C1c1cccc([N+](=O)[O-])c1 (centres unmarked) [Dihydropyridine Compound A, Isopropyl ester of 6-cyano-5-methoxycarbonyl-2-methyl-4-(3-nitrophenyl)-1,4-dihydropyridine-3-carboxylic acid]	0.85 ±0.15	0.61 ±0.19	0.033 nM	57 ± 13 % of control	27 ± 6 % of control	8 ± 3 % of control	2.2 mg/kg	0.85 ± 0.16	0.61 ± 0.21	94 ± 9 % of control
